The test system of series [1] is orthotopic E0771 murine mammary carcinoma. The conditions noted are these: for anti-tumor activity (in words): BT17BDC-18 at 6.2 mg/kg or 4.8 mg/kg, anti-mPD-1 10 mg/kg, paclitaxel 15 mg/kg.
Source text: The purpose of this study was to evaluate the anti-cancer activity of BT17BDC-18 alone and in combination with anti-mPD-1 against established orthotopic E0771 murine mammary carcinoma in female C57BL/6 mice.
All mice were sorted into study groups based on caliper estimation of tumor burden. The mice were distributed to ensure that the mean tumor burden for all groups was within 10% of the overall mean tumor burden for the study population.
All animals weighed at least 16.6 g at the initiation of therapy. […] A tumor burden of 2000 mm^3, was chosen for evaluation of efficacy by time to progression (time to euthanasia/death).
Treatment-related weight change—This is a group endpoint calculated from the group mean body weights. It is calculated differently for specific circumstances as follows: • If (at any point between the first day of treatment and two weeks after the final treatment) the mean group body weight decreases by more than 2%, the maximum weight loss is reported, even if body weight eventually rebounded during treatment to a net weight gain. […] To assess the contribution of test agents to weight loss, Net Treatment Related Weight Loss may be used. […] When this occurs, net weight loss is calculated by normalizing for tumor burden. We do this by constructing a plot of control group mean tumor burden vs control group mean weight loss, using all of the weight data available for the control group. […] This value is then subtracted from the mean weight loss in the treated group to generate the net weight loss for the treated group on that day. The calculated net weight loss is then used to estimate the tolerance to the drug.
Time to Progression (TP)—Time to progression is a surrogate for lifespan, time on study, or lifespan. It is used for studies that involve IACUC mandated euthanasia of animals for excessive tumor burdens (even if the animals otherwise appear normal). The mandated tumor burden limit is tumor model dependent. TP data is analyzed by Kaplan Meier methods just as traditional life span data. The Time to Progression for an individual animal is the number of days between initiation of treatment and the death or required euthanasia of that animal. […] This puts all animals on the same footing, and removes the impact of possibly delayed euthanasia (which may occur for sampling, or weekends and holidays). Animals euthanized for scheduled sampling or other causes unrelated to disease progression or therapy are excluded from this calculation. The median Time to Progression for a group is used to calculate the % Increase in Time to Progression (% ITP).
% Increase in Time to Progression (% ITP)—% ITP is a group endpoint.
Complete Regression (CR)—An animal is credited a complete regression if its tumor burden is reduced to an immeasurable volume at any point after the first treatment. Our convention is to record any tumor measurement less than 5 mm as a “0.” The CR must be maintained for at least 2 consecutive measurements. This is in keeping with the convention of the NCI and reflects the inherent and unacceptably high mechanical error in such measurements in addition to the uncertain biology of what is measured at those small sizes.
A short description of series [2]: Tolerability and deaths in E0771 study (Example 3). It is filed as in vivo, Mouse. Particulars: single agent paclitaxel 15 mg/kg; considered non-specific deaths, treatment not completely ruled out. An excerpt: Animals euthanized during the same period for other causes (sampling, accidental trauma, etc.) are excluded from this calculation. […] (Group toxicity parameter)

Setting [3] is: BT17BDC-18 6.2 mg/kg IV Q7Dx4, anti-mPD-1 10 mg/kg IP, paclitaxel 15 mg/kg IV Q7Dx4, alone or combined.

Where two headings read alike, the source gives them in different places.

Consider `CC(=O)O[C@H]1C(=O)[C@@]2(C)[C@H]([C@H](OC(=O)c3ccccc3)[C@]3(O)C[C@H](OC(=O)[C@H](O)[C@@H](NC(=O)c4ccccc4)c4ccccc4)C(C)=C1C3(C)C)[C@]1(OC(C)=O)CO[C@@H]1C[C@@H]2O` [Paclitaxel], for which, in series [1] (setting [3]), the “% increase in time to progression” value worked out at 17.9%, the “Day 36 median ΔT/ΔC” value worked out at 94% and the “increase in time to progression” value amounted to 4.0 days. Moreover, the “anti-tumor activity (in words)” value in series [1] is “Poor response”. In addition, the “anti-tumor activity (in words)” value in series [1] (listed as paclitaxel) was “mildly active”. In addition, the deaths in group result in series [2] was “two”.
